Drawing on PubChem BioAssay AID248 (DTP/NCI, 2004), this text covers T/C for 4 compounds.

Values joined by “and” are separate entries in the source; they are usually repeats but may differ in a detail not shown here. Equal entries are not always repeated. Inconclusive results and toxic doses are left out.

This assay relates to L1210 leukemia ip in BDF1 mice, survival T/C. Briefly: NCI In Vivo Anticancer Drug Screen. Data for tumor model L1210 Leukemia (intraperitoneal) in B6D2F1 (BDF1) mice. Particulars: higher = longer survival. In outline:
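Transplantable tumor model; survival measured in treated vs vehicle control mice. Value = treated/control.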

As to `COC(=O)C[C@](O)(CCCC(C)(C)O)C(=O)O[C@@H]1C(OC)=C[C@]23CCCN2CCc2cc4c(cc2[C@H]13)OCO4`, the T/C (endpoint: mean survival time, dose: 0.06 mg/kg/injection, schedule: Q01DX009 (ip), vehicle: water) was 110 % of control; the T/C (endpoint: mean survival time, dose: 0.13 mg/kg/injection, schedule: Q01DX009 (ip), vehicle: water) is 111 % of control; the T/C (endpoint: mean survival time, dose: 0.25 mg/kg/injection, schedule: Q01DX009 (ip), vehicle: acid diluted with saline) was 113 % of control; the T/C (endpoint: mean survival time, dose: 0.25 mg/kg/injection, schedule: Q01DX009 (ip), vehicle: water) is 113 % of control and 123 % of control (2×); the T/C (endpoint: mean survival time, dose: 0.25 mg/kg/injection, schedule: Q03HX008 (ip), vehicle: acid diluted with saline) was 114 % of control; the T/C (endpoint: mean survival time, dose: 0.25 mg/kg/injection, schedule: Q03HX016 (ip), vehicle: acid diluted with saline) was 108 % of control. Besides, the T/C is 111 % of control (endpoint: mean survival time, dose: 0.5 mg/kg/injection, schedule: Q01DX006 (iv), vehicle: acid diluted with saline); 120 % of control (endpoint: mean survival time, dose: 0.5 mg/kg/injection, schedule: Q01DX009 (ip), vehicle: acid diluted with saline); 105 % of control (endpoint: mean survival time, dose: 0.5 mg/kg/injection, schedule: Q01DX009 (oral), vehicle: acid diluted with saline); 103 % of control (endpoint: mean survival time, dose: 0.5 mg/kg/injection, schedule: Q01DX009 (oral), vehicle: saline); 100 % of control (endpoint: mean survival time, dose: 0.5 mg/kg/injection, schedule: Q01DX009 (sc), vehicle: acid diluted with saline); 112 % of control (endpoint: mean survival time, dose: 0.5 mg/kg/injection, schedule: Q01DX009 (sc), vehicle: saline). For the same compound, the T/C reads like this: (endpoint: mean survival time, dose: 0.5 mg/kg/injection, schedule: Q03HX008 (ip), vehicle: acid diluted with saline) 120 % of control; (endpoint: mean survival time, dose: 0.5 mg/kg/injection, schedule: Q03HX016 (ip), vehicle: acid diluted with saline) 117 % of control; (endpoint: mean survival time, dose: 1.0 mg/kg/injection, schedule: Q01DX006 (iv), vehicle: acid diluted with saline) 116 % of control; (endpoint: mean survival time, dose: 1.0 mg/kg/injection, schedule: Q01DX009 (oral), vehicle: acid diluted with saline) 107 % of control; (endpoint: mean survival time, dose: 1.0 mg/kg/injection, schedule: Q01DX009 (oral), vehicle: saline) 108 % of control; (endpoint: mean survival time, dose: 1.0 mg/kg/injection, schedule: Q01DX009 (sc), vehicle: acid diluted with saline) 117 % of control. The T/C reads like this: (endpoint: mean survival time, dose: 1.0 mg/kg/injection, schedule: Q01DX009 (sc), vehicle: saline) 124 % of control; (endpoint: mean survival time, dose: 1.0 mg/kg/injection, schedule: Q03HX008 (ip), vehicle: acid diluted with saline) 120 % of control; (endpoint: mean survival time, dose: 1.0 mg/kg/injection, schedule: Q03HX016 (ip), vehicle: acid diluted with saline) 119 % of control; (endpoint: mean survival time, dose: 1.0 mg/kg/injection, schedule: Q04DX003 (ip), vehicle: acid diluted with saline) 110 % of control; (endpoint: mean survival time, dose: 2.0 mg/kg/injection, schedule: Q01DX001 (ip), vehicle: acid diluted with saline) 111 % of control; (endpoint: mean survival time, dose: 2.0 mg/kg/injection, schedule: Q01DX001 (iv), vehicle: acid diluted with saline) 113 % of control. The T/C (endpoint: mean survival time, dose: 2.0 mg/kg/injection, schedule: Q01DX001 (oral), vehicle: acid diluted with saline) was 105 % of control; the T/C (endpoint: mean survival time, dose: 2.0 mg/kg/injection, schedule: Q01DX001 (sc), vehicle: acid diluted with saline) was 109 % of control; the T/C (endpoint: mean survival time, dose: 2.0 mg/kg/injection, schedule: Q01DX006 (iv), vehicle: acid diluted with saline) was 116 % of control; the T/C (endpoint: mean survival time, dose: 2.0 mg/kg/injection, schedule: Q01DX009 (ip), vehicle: acid diluted with saline) was 150 % of control; the T/C (endpoint: mean survival time, dose: 2.0 mg/kg/injection, schedule: Q01DX009 (oral), vehicle: acid diluted with saline) is 117 % of control; the T/C (endpoint: mean survival time, dose: 2.0 mg/kg/injection, schedule: Q01DX009 (oral), vehicle: saline) is 120 % of control. In addition, the T/C was 116 % of control (endpoint: mean survival time, dose: 2.0 mg/kg/injection, schedule: Q01DX009 (sc), vehicle: saline); 107 % of control (endpoint: mean survival time, dose: 2.0 mg/kg/injection, schedule: Q08DX002 (ip), vehicle: acid diluted with saline); 114 % of control (endpoint: mean survival time, dose: 4.0 mg/kg/injection, schedule: Q01DX001 (ip), vehicle: acid diluted with saline); 109 % of control (endpoint: mean survival time, dose: 4.0 mg/kg/injection, schedule: Q01DX001 (iv), vehicle: acid diluted with saline); 109 % of control (endpoint: mean survival time, dose: 4.0 mg/kg/injection, schedule: Q01DX001 (oral), vehicle: acid diluted with saline); 109 % of control (endpoint: mean survival time, dose: 4.0 mg/kg/injection, schedule: Q01DX001 (sc), vehicle: acid diluted with saline). The T/C was 122 % of control (endpoint: mean survival time, dose: 4.0 mg/kg/injection, schedule: Q01DX006 (iv), vehicle: acid diluted with saline); 86 % of control (endpoint: mean survival time, dose: 4.0 mg/kg/injection, schedule: Q01DX009 (ip), vehicle: acid diluted with saline); 123 % of control (endpoint: mean survival time, dose: 4.0 mg/kg/injection, schedule: Q01DX009 (oral), vehicle: acid diluted with saline); 111 % of control (endpoint: mean survival time, dose: 4.0 mg/kg/injection, schedule: Q01DX009 (sc), vehicle: acid diluted with saline); 119 % of control (endpoint: mean survival time, dose: 4.0 mg/kg/injection, schedule: Q04DX003 (ip), vehicle: acid diluted with saline); 109 % of control (endpoint: mean survival time, dose: 4.0 mg/kg/injection, schedule: Q08DX002 (ip), vehicle: acid diluted with saline). Further, the T/C by setting is: (endpoint: mean survival time, dose: 8.0 mg/kg/injection, schedule: Q01DX001 (iv), vehicle: acid diluted with saline) 114 % of control; (endpoint: mean survival time, dose: 8.0 mg/kg/injection, schedule: Q04DX003 (ip), vehicle: acid diluted with saline) 102 % of control; (endpoint: mean survival time, dose: 125.0 micrograms/kg/injection, schedule: Q03HX024 (ip), vehicle: acid diluted with saline) 119 % of control; (endpoint: mean survival time, dose: 1000.0 micrograms/kg/injection, schedule: Q03HX024 (ip), vehicle: acid diluted with saline) 89 % of control; (endpoint: median survival time, dose: 1.0 mg/kg/injection, schedule: Q04DX003 (ip), vehicle: saline) 110 % of control; (endpoint: median survival time, dose: 2.0 mg/kg/injection, schedule: Q04DX003 (ip), vehicle: saline) 113 % of control. The T/C (endpoint: median survival time, dose: 4.0 mg/kg/injection, schedule: Q04DX003 (ip), vehicle: saline) is 100 % of control.
For `CCN(CC)CCOC(=O)N1c2ccccc2Sc2ccccc21`, the T/C is 100 % of control (endpoint: mean survival time, dose: 25.0 mg/kg/injection, schedule: Q01DX009 (ip), vehicle: saline with Tween-80); 102 % of control (endpoint: mean survival time, dose: 50.0 mg/kg/injection, schedule: Q01DX009 (ip), vehicle: Klucel (hydroxypropylcellulose) (HPC)); 103 % of control (endpoint: mean survival time, dose: 50.0 mg/kg/injection, schedule: Q01DX009 (ip), vehicle: saline with Tween-80); 102 % of control (endpoint: mean survival time, dose: 100.0 mg/kg/injection, schedule: Q01DX009 (ip), vehicle: Klucel (hydroxypropylcellulose) (HPC)); 103 % of control (endpoint: mean survival time, dose: 100.0 mg/kg/injection, schedule: Q01DX009 (ip), vehicle: saline with Tween-80); 98 % of control (endpoint: mean survival time, dose: 100.0 mg/kg/injection, schedule: Q04DX003 (ip), vehicle: Klucel (hydroxypropylcellulose) (HPC)). Further, the T/C reads like this: (endpoint: mean survival time, dose: 100.0 mg/kg/injection, schedule: Q04DX003 (ip), vehicle: saline with Tween-80) 93 % of control; (endpoint: mean survival time, dose: 200.0 mg/kg/injection, schedule: Q04DX003 (ip), vehicle: Klucel (hydroxypropylcellulose) (HPC)) 93 % of control.
For `CCCCN(C)/N=N/c1nc[nH]c1C#N`, the T/C is 105 % of control (endpoint: mean survival time, dose: 75.0 mg/kg/injection, schedule: Q01DX001 (ip), vehicle: other); 103 % of control (endpoint: mean survival time, dose: 75.0 mg/kg/injection, schedule: Q01DX009 (ip), vehicle: saline with Tween-80); 105 % of control (endpoint: mean survival time, dose: 75.0 mg/kg/injection, schedule: Q04DX003 (ip), vehicle: saline with Tween-80); 102 % of control (endpoint: mean survival time, dose: 150.0 mg/kg/injection, schedule: Q01DX001 (ip), vehicle: other); 105 % of control (endpoint: mean survival time, dose: 150.0 mg/kg/injection, schedule: Q01DX009 (ip), vehicle: saline with Tween-80); 96 % of control (endpoint: mean survival time, dose: 150.0 mg/kg/injection, schedule: Q04DX003 (ip), vehicle: saline with Tween-80). Moreover, the T/C (endpoint: mean survival time, dose: 300.0 mg/kg/injection, schedule: Q01DX001 (ip), vehicle: other) is 101 % of control; the T/C (endpoint: mean survival time, dose: 300.0 mg/kg/injection, schedule: Q01DX009 (ip), vehicle: saline with Tween-80) is 109 % of control; the T/C (endpoint: mean survival time, dose: 300.0 mg/kg/injection, schedule: Q04DX003 (ip), vehicle: saline with Tween-80) was 96 % of control.
On to `[N-]=[N+]=CC(=O)NCC(N)=O`, for which the T/C was 110 % of control (endpoint: mean survival time, dose: 125.0 mg/kg/injection, schedule: Q01DX009 (ip), vehicle: other); 91 % of control (endpoint: mean survival time, dose: 125.0 mg/kg/injection, schedule: Q01DX009 (sc), vehicle: other); 121 % of control (endpoint: mean survival time, dose: 222.0 mg/kg/injection, schedule: Q01DX Z (ip), vehicle: water); 97 % of control (endpoint: mean survival time, dose: 250.0 mg/kg/injection, schedule: Q01DX009 (sc), vehicle: other); 103 % of control (endpoint: mean survival time, dose: 500.0 mg/kg/injection, schedule: Q01DX009 (sc), vehicle: other); 97 % of control (endpoint: mean survival time, dose: 750.0 mg/kg/injection, schedule: Q01DX009 (sc), vehicle: other). Besides, under “endpoint: mean survival time, dose: 750.0 mg/kg/injection, schedule: Q01DX Z (ip), vehicle: water”, the T/C is 104 % of control.
